These results are taken from article PMC12467234, “Label-Free and Ultrasensitive APE1 Detection Based on Hybridization Chain Reaction Combined with G-Quadruplex” (Biomolecules, 2025).

A word on the pIC50: it is the IC50 on a negative log10 scale, so that one unit is a factor of ten.

pIC50: −log10 of the molar value. Where two headings read alike, the source gives them in different places.

The experiment deals with T1, Apurinic/apyrimidinic endonuclease 1 (APE1) (Homo sapiens, UniProt P27695).
T1 construct: gene APEX1
T1 sequence (P27695 2-318): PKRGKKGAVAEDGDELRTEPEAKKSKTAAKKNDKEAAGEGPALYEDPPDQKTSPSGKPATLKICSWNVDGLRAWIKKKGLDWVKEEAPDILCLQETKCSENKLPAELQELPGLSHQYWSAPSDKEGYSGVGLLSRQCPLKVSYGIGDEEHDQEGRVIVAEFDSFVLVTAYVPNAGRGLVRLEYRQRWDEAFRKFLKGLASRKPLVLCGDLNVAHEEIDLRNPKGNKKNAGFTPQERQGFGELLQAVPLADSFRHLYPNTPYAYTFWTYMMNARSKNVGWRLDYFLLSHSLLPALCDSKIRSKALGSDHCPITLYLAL
In words: fluorescent HCR/G-quadruplex-ThT assay of AP-site cleavage by purchased APE1; also in cell lysates. The experiment is classed as biochemical.

The compound `O=C(O)c1cc2cccc([N+](=O)[O-])c2[nH]1` [NCA, 7-nitroindole-2-carboxylic acid] had a pIC50 of approximately 5.46. For `CO/N=C(\C(=O)N[C@@H]1C(=O)N2C(C(=O)O)=C(COC(C)=O)CS[C@H]12)c1csc(N)n1` [cefotaxime sodium], the pIC50 (read-out: IC50) is approximately 4.12.
